Laboratory results published in paper PMC11403616, “Arcopilins: A New Family of Staphylococcus aureus Biofilm Disruptors from the Soil Fungus Arcopilus navicularis” (Journal of Medicinal Chemistry, 2024).
Values after ≈ are worked out from the molar mass of the structure shown. “Also recorded” adds a separate entry of the source. Read-outs that look alike come from different tables or passages of the source.

Legend:
[1] = tested on: human cancer cell lines; conditions: cited from earlier work
[2] = tested on: different bacterial and fungal strains; assay: Antimicrobial activities against bacterial and fungal strains (whole panel); format: cell-based; conditions: whole panel of bacteria and fungi
Experimental: (§1) The antimicrobial activities of compounds 1–7 (Acp A–G) were assessed against different bacterial and fungal strains in addition to their cytotoxic effects on two mammalian cell lines. The tested microorganisms comprised a diverse array of clinically relevant pathogens, encompassing sensitive indicator strains. Among the Gram-positive bacteria were Bacillus subtilis, Staphylococcus aureus, and Mycolicibacterium smegmatis. Gram-negative bacteria included Acinetobacter baumannii, Chromobacterium violaceum, Escherichia coli, and Pseudomonas aeruginosa. Additionally, filamentous fungi such as Mucor hiemalis and yeasts including Candida albicans, Wickerhamomyces anomalus, Rhodotorula glutinis, and Schizosaccharomyces pombe were included. Generally, all compounds presented similar biological properties, summarized in weak or no activity against fungal pathogens as well as weak to moderate inhibition of Gram-positive bacteria (Table 2).
(§2) The antimicrobial and cytotoxic assays were performed according to the methods reported previously.[57]

[3] = tested on: two mammalian cell lines; assay: Cytotoxic effects on two mammalian cell lines (summary); format: cell-based; conditions: KB-3-1 and L929
Experimental: as §1, §2

[4] = tested on: B. subtilis DSM 10; assay: MIC against bacteria (antimicrobial assay); format: cell-based, Bacillus subtilis; conditions: for MIC: Bacillus subtilis, DSM10, DSM 10, – = no activity observed under test conditions; for MIC B. subtilis: supplement CSV, decimal comma, unit not given, in µg/mL
Experimental: as §1, §2

[5] = tested on: M. smegmatis ATCC 700084; assay: MIC against bacteria (antimicrobial assay); format: cell-based, Mycolicibacterium smegmatis
Experimental: as §1, §2

[6] = tested on: M. hiemalis DSM 2656; assay: MIC against fungi (antimicrobial assay); format: cell-based, Mucor hiemalis; conditions: for MIC: Mucor hiemalis, DSM2656, DSM 2656, – = no activity observed under test conditions; for MIC M. hiemalis: supplement CSV, decimal comma, unit not given, in µg/mL
Experimental: as §1, §2

[7] = tested on: KB-3-1 (ACC 158); assay: Cytotoxicity against mammalian cell lines; format: cell-based; conditions: Homo sapiens
Experimental: as §1, §2

[8] = tested on: L929 (ACC 2); assay: Cytotoxicity against mammalian cell lines; format: cell-based; conditions: Mus musculus
Experimental: as §1, §2

[9] = tested on: preformed biofilms of S. aureus DSM 1104; assay: Disruption of preformed biofilms, crystal violet assay; format: cell-based, Staphylococcus aureus
Experimental: Therefore, Acp A–G were evaluated against preformed biofilms of S. aureus using crystal violet staining.[47]
Cultures of S. aureus DSM 1104 were prepared by inoculating 1 mL aliquots from a frozen stock (−20 °C) into 25 mL of CASO medium and incubating them overnight at 37 °C with shaking at 130 rpm.
The crystal violet assay was performed according to a previously reported procedure.[47] Arcopilins A–G were tested in serial dilutions (250–2 μg/mL), with methanol and microporenic acid A (MAA) as negative and positive controls, respectively. Statistical differences between samples and the controls were determined using a two-tailed Student’s t test, with statistical significance defined as p < 0.01. Statistical analysis was carried out using GraphPad Prism 9 (GraphPad Software, San Diego, CA).[58]

[10] = tested on: S. aureus; conditions: cited from earlier work
[11] = tested on: methicillin-resistant S. aureus (MRSA); conditions: cited from earlier work
[12] = tested on: S. aureus DSM 346; assay: MIC against bacteria (antimicrobial assay); format: cell-based, Staphylococcus aureus; conditions: for MIC: Staphylococcus aureus, DSM346, DSM 346, – = no activity observed under test conditions; for MIC S. aureus: supplement CSV, decimal comma, unit not given, in µg/mL
Experimental: as §1, §2

[13] = tested on: planktonic cells of S. aureus DSM 1104; assay: Checkerboard broth dilution assay (FICI); format: cell-based, Staphylococcus aureus
Text: After assessing the effects of Acp A on the pathogen S. aureus, we delved deeper into the interaction of Acp A with established antibiotics (GM and Vac). This exploration focused on both planktonic cells and preformed biofilms of S. aureus. Consequently, we used a checkerboard assay to determine the fractional inhibitory concentration index (FICI) for combinations involving Acp A, GM, or Vac based on both their MIC values in combination.[49]
The interaction between arcopilin A, vancomycin, and gentamicin against S. aureus DSM 1104 was evaluated using a checkerboard broth dilution method to determine the fractional inhibitory concentration indices (FICIs), calculated as FIC = MIC of drug A in combination/MIC of drug A alone + MIC of drug B in combination/MIC of drug B alone.[59] The FICIs were interpreted as synergistic (FICI ≤ 0.5). For this assay, a seed culture was prepared as previously described to inoculate fresh CASO with 4% glucose broth to match the turbidity of a 0.1 McFarland standard suspension. Then, 100 μL of bacterial suspension was distributed in 96-well nontissue microtiter plates (TPP nontissue culture ref no. 92197, Switzerland). Arcopilin A (7.8–2 μg/mL) and antibiotics (vancomycin and gentamicin: 31.3–0.016 μg/mL) were added in increasing concentrations in columns and rows, respectively. The experiments were conducted in duplicate.

[14] = tested on: preformed biofilms of S. aureus DSM 1104; assay: CFU count analysis, synergistic effects on preformed biofilms; format: cell-based, Staphylococcus aureus; conditions: Acp A 7.8–3.9 μg/mL, GM 7.8–2 μg/mL, Vac 15.6–3.9 μg/mL
Experimental: The seed culture of S. aureus DSM 1104 was prepared as previously described, and the OD600 was adjusted to match the turbidity of a 0.001 McFarland standard. Then, 150 μL of bacterial solution in CASO with 4% glucose broth was incubated in 96-well tissue plates (TPP tissue culture ref no. 92196, Switzerland) for 24 h at 150 rpm. […] Methanol (2.5%) was used as the solvent control. The plates were incubated for a further 24 h at 37 °C. Colony-forming unit (CFU) count analysis of arcopilin A, antibiotics (vancomycin and gentamicin), and their combinations was performed as previously described.[58] Cells were suspended in the well 50 times. Dilution series in 1 to 10 steps (20 μL in 200 μL) were prepared down to a final dilution level of 10^–6, and 100 μL of this last dilution was platted on LB agar plates using 3 mm small glass beads (5 to 10, Omnilab, Germany) to homogeneously spread the liquid. Individual colonies on agar plates were counted after incubation at 30 °C for 24 and 48 h.[60] Afterward, CFUs were calculated by considering the dilution factors. Error bars indicate the SD of duplicate with two repeats.

[15] = KB 3-1, ACC 158, – = no activity observed under test conditions, read-out: IC50 against mammalian cell lines, KB-3-1
[16] = L929, ACC 2, – = no activity observed under test conditions, read-out: IC50 against mammalian cell lines, L929

C/C=C(\C)[C@H]1C(C)=C[C@@]2(C)C[C@@H](C)CC[C@@H]2[C@H]1C(=O)C1=C[C@@](CC(C)C)(OC)NC1=O [myceliothermophin C]
antitumor activity against a number of human cancer cell lines [1]: potent antitumor activity

C/C=C(\C)[C@H]1C(C)=C[C@@]2(C)C[C@@H](C)CC[C@@H]2[C@H]1C(=O)C1=C[C@](CC(C)C)(OC)NC1=O [myceliothermophin D]
antitumor activity against a number of human cancer cell lines [1]: potent antitumor activity

C[C@@H](C[C@H](C)C(=O)C1=C(O)/C(=C/c2ccccc2)NC1=O)C[C@](C)(O)[C@@H](O)C(=O)O [Acp F, Arcopilin F]
antimicrobial activity (in words) [2]: did not exhibit any antimicrobial activity | cytotoxic properties (in words) [3]: weak or no cytotoxic effects

CN(C)[C@@H]1C(O)=C(C(N)=O)C(=O)[C@@]2(O)C(O)=C3C(=O)c4c(O)cccc4[C@@](C)(O)[C@H]3[C@H](O)[C@@H]12 [Oxytetracycline, reference compound]
MIC [4]: 8.3 µg/mL (≈ 18 µM)

myceliothermophin E
antitumor activity against a number of human cancer cell lines [1]: potent antitumor activity

CC[C@H](C)C[C@@H](C)C[C@H](C)C(=O)C1=C(O)/C(=C/c2ccccc2)NC1=O [Acp D, Arcopilin D]
MIC [4]: 4.2 µg/mL (≈ 11.8 µM) | MIC B. subtilis [4]: 4,2 | MIC ([5]; Mycolicibacterium smegmatis, ATCC700084, ATCC 700084, – = no activity observed under test conditions): 66.7 µg/mL (≈ 188 µM) | MIC M. smegmatis ([5]; supplement CSV, decimal comma, unit not given, in µg/mL): 66,7 | MIC [6]: 66.7 µg/mL (≈ 188 µM) | MIC M. hiemalis [6]: 66,7 | IC50 [7, 15]: 800 ng/mL (≈ 2.25 µM) | IC50 [8, 16]: 1700 ng/mL (≈ 4.78 µM) | lowest concentration with significant dispersal effects [9]: 31.3 µg/mL

C/C=C(\C)[C@@H]1C(C)=C[C@]2(C)C[C@H](C)CC[C@H]2[C@@H]1C(=O)C1=C[C@](Cc2ccccc2)(OC)NC1=O [chaetolivacine B]
antibacterial properties against S. aureus [10]: moderate antibacterial properties | antibacterial properties against MRSA [11]: moderate antibacterial properties

CC[C@H](C)[C@@H]1O[C@H](c2c(O)c(-c3ccccc3)cn(O)c2=O)[C@@H](C)C[C@@H]1C [Acp G, Arcopilin G]
MIC [4]: 8.3 µg/mL (≈ 22.3 µM) | MIC B. subtilis [4]: 8,3 | MIC [12]: 16.6 µg/mL (≈ 44.7 µM) | MIC S. aureus [12]: 16,6 | IC50 [7, 15]: 0.2 ng/mL (≈ 0.000538 µM) | IC50 [8, 16]: 0.024 ng/mL (≈ 6.46e-05 µM) | cytotoxic properties (in words) [3]: most cytotoxic metabolite

C[C@H](C[C@@H](C)[C@H](C)O)C[C@H](C)C(=O)C1=C(O)/C(=C/c2ccccc2)NC1=O [Acp B, Arcopilin B]
MIC [4]: 66.7 µg/mL (≈ 180 µM) | MIC B. subtilis [4]: 66,7 | MIC [12]: 66.7 µg/mL (≈ 180 µM) | MIC S. aureus [12]: 66,7 | cytotoxic properties (in words) [3]: weak or no cytotoxic effects

C[C@@H](C[C@H](C)C(=O)C1=C(O)/C(=C/c2ccccc2)NC1=O)C[C@](C)(O)C(=O)CO [Acp E, Arcopilin E]
antimicrobial activity (in words) [2]: did not exhibit any antimicrobial activity | cytotoxic properties (in words) [3]: weak or no cytotoxic effects

CN[C@H](CC(C)C)C(=O)N[C@H]1C(=O)N[C@@H](CC(N)=O)C(=O)N[C@H]2C(=O)N[C@H]3C(=O)N[C@H](C(=O)N[C@H](C(=O)O)c4cc(O)cc(O)c4-c4cc3ccc4O)[C@H](O)c3ccc(c(Cl)c3)Oc3cc2cc(c3O[C@@H]2O[C@H](CO)[C@@H](O)[C@H](O)[C@H]2O[C@H]2C[C@](C)(N)[C@H](O)[C@H](C)O2)Oc2ccc(cc2Cl)[C@H]1O [Vac, vancomycin]
increase of the potency of the antibiotic in combination with Acp A ([13]; Acp A 3.9 μg/mL, MIC alone versus in combination): ≤ 31 fold | MIC ([13]; Staphylococcus aureus, DSM1104, read-out: MIC of each single compound (MICs)): 2 µg/mL | MIC in combination (MICc), Acp A and Vac ([13]; combination of Acp A (3.9 μg/mL) with Vac): 0.065 µg/mL | improvement in the inhibitory effects in combination with Acp A [14]: ~3 fold

C[C@H](C[C@@H](C)[C@H](C)OC=O)C[C@H](C)C(=O)C1=C(O)/C(=C/c2ccccc2)NC1=O [Acp C, Arcopilin C]
MIC [4]: 33.3 µg/mL (≈ 83.4 µM) | MIC B. subtilis [4]: 33,3 | MIC [12]: 33.3 µg/mL (≈ 83.4 µM) | MIC S. aureus [12]: 33,3 | MIC [6]: 66.7 µg/mL (≈ 167 µM) | MIC M. hiemalis [6]: 66,7 | IC50 [7, 15]: 800 ng/mL (≈ 2 µM) | IC50 [8, 16]: 1400 ng/mL (≈ 3.5 µM) | efficacy toward preformed biofilms ([9]; at 3.9 μg/mL): 35–45% | effectiveness in the dispersal of preformed biofilms ([9]; between 7.8 μg/mL and 250 μg/mL): approximately 50% | disrupting effect on preformed biofilms (in words) ([9]; tested 250–2 μg/mL): most promising disrupting effects; also recorded: remarkable effectiveness

C/C(=C\c1csc(C)n1)[C@@H]1C[C@@H]2O[C@]2(C)CCC[C@H](C)[C@H](O)[C@@H](C)C(=O)C(C)(C)[C@@H](O)CC(=O)O1 [Epothilone B, reference compound]
IC50 ([7]; KB 3-1, read-out: IC50 against mammalian cell lines, KB-3-1): 0.0086 ng/mL (≈ 1.69e-05 µM) | IC50 ([8]; L929, read-out: IC50 against mammalian cell lines, L929): 0.086 ng/mL (≈ 0.000169 µM)
